Experimental data from ChEMBL document CHEMBL3507680, “University of Dundee, Gates Library screen for HepG2 cell viability”.

Test: Human HepG2 cell viability assay in 384 well format
Type: toxicity, cell-based
Parameters: dose 125 nL, time 70.5 hour; concentration not given beside the values
Details: HepG2 cells, read-out: Inhibition

**Q.** With `Cn1cnc(S(=O)(=O)NCCC(O)c2ccc3c(c2)OCO3)c1` (configuration not stated) as the molecule, how does the cytotoxicity at 70.5 h read?
**A.** 20.5%

**Q.** Which cytotoxicity at 70.5 h does the source give for `Cc1cccc(CN(Cc2ccccn2)S(=O)(=O)N(C)C)c1` here?
**A.** 18.6%

**Q.** Which cytotoxicity at 70.5 h does the source give for `Cc1cc(C)cc(Nc2nc(C)cc(=O)n2CC(=O)NC(C)C)c1` here?
**A.** -5.12%

**Q.** With `Cc1nc(C)c(C(=O)N2CCCC2c2nnc3n2CCCCC3)s1` (configuration not stated) as the molecule, how does the cytotoxicity at 70.5 h read?
**A.** -8.07%

**Q.** Which cytotoxicity at 70.5 h does the source give for `Cc1cc(C)c(-n2cc(CCO)cn2)cc1C` here?
**A.** 22.1%

**Q.** For `CCCn1nc(C)c2c1NC(=O)CC2c1ccc(CN2CCCC2)s1` (configuration not stated), which cytotoxicity at 70.5 h is on record?
**A.** -9.08%

**Q.** For `CNC(=O)c1cc(-c2ccccc2)nc2ncnn12`, which cytotoxicity at 70.5 h is on record?
**A.** 7.79%

**Q.** With `CCOCc1nc(N2CCOCC2)sc1C(=O)NCCCc1ccco1` as the molecule, how does the cytotoxicity at 70.5 h read?
**A.** 0.741%

**Q.** For `Cc1cccc(CN2C[C@H]3OC(=O)N(CCCN4CCOCC4)[C@H]3C2)n1`, which cytotoxicity at 70.5 h is on record?
**A.** -10.1%

**Q.** With `CN1C[C@@H](NC(=O)C2CC2)C[C@H]1c1nc(-c2cnccn2)no1` as the molecule, how does the cytotoxicity at 70.5 h read?
**A.** 1.69%

**Q.** With `Cc1cnn(CC2CCCN2C(=O)Cc2cn3ccsc3n2)c1` (configuration not stated) as the molecule, how does the cytotoxicity at 70.5 h read?
**A.** -6.38%

**Q.** For `CCCn1cc(C(=O)N2CCCC(c3nccn3CCOC)C2)c(C)n1` (configuration not stated), which cytotoxicity at 70.5 h is on record?
**A.** 1.39%

**Q.** For `CCn1nc(C)c(CNC(=O)NCC(C)(O)c2ccsc2)c1C` (configuration not stated), which cytotoxicity at 70.5 h is on record?
**A.** -8.94%

**Q.** With `c1ccc2c(CC3CN(Cc4nccs4)CCO3)cccc2c1` (configuration not stated) as the molecule, how does the cytotoxicity at 70.5 h read?
**A.** -0.398%

**Q.** Which cytotoxicity at 70.5 h does the source give for `CCc1cc(C)c(C(=O)N2CCCC2CC(=O)c2cnn(C)c2)o1` (configuration not stated) here?
**A.** 6.36%

**Q.** With `CCc1ncc(C(=O)NCC2CCN(Cc3ccncc3)CC2)cn1` as the molecule, how does the cytotoxicity at 70.5 h read?
**A.** -5.64%

**Q.** With `Cc1c[nH]nc1C1CCN(C(=O)C2CCC2)CC1` as the molecule, how does the cytotoxicity at 70.5 h read?
**A.** -8.63%

**Q.** With `CCc1ccc(S(=O)(=O)N2CCCn3ncnc32)s1` as the molecule, how does the cytotoxicity at 70.5 h read?
**A.** -3.85%

**Q.** For `O=C(c1cc(COc2ccc3c(c2)OCO3)[nH]n1)N1CCCCO1`, which cytotoxicity at 70.5 h is on record?
**A.** 20.1%

**Q.** With `CC1CN(C(=O)c2ccc(C(N)=O)cc2)c2ccc(F)cc2O1` (configuration not stated) as the molecule, how does the cytotoxicity at 70.5 h read?
**A.** 2.67%

**Q.** With `CC1=C(CCN2CC[C@@H](N3CCC(O)CC3)[C@H](O)C2)C(C)(C)CCC1` as the molecule, how does the cytotoxicity at 70.5 h read?
**A.** -5.02%

**Q.** With `CCOC(=O)c1sc2ccsc2c1CNC(=O)C(C)(C)C#N` as the molecule, how does the cytotoxicity at 70.5 h read?
**A.** -2.32%

**Q.** For `CC(C)Sc1ncccc1C(=O)NCc1ccoc1`, which cytotoxicity at 70.5 h is on record?
**A.** -9.56%

**Q.** Which cytotoxicity at 70.5 h does the source give for `COc1cc(C2CC(=O)Oc3cc(C)[nH]c(=O)c32)ccc1OCC(=O)O` (configuration not stated) here?
**A.** -14.1%

**Q.** For `Cc1ccsc1C(CNC(=O)c1cc(=O)[nH]c(=O)[nH]1)N(C)C` (configuration not stated), which cytotoxicity at 70.5 h is on record?
**A.** 17.7%

**Q.** Which cytotoxicity at 70.5 h does the source give for `O=C(c1cc[nH]n1)N1CCc2ncnc(N3CCSCC3)c2CC1` here?
**A.** 10.4%

**Q.** With `COCC(=O)N1CCC(c2c(C(=O)N(C)C)sc3ncccc23)C1` (configuration not stated) as the molecule, how does the cytotoxicity at 70.5 h read?
**A.** 27.1%

**Q.** For `CN(C)Cc1nnc(C2CCN(c3ncccc3Cl)CC2)n1C1CC1`, which cytotoxicity at 70.5 h is on record?
**A.** 8.65%

**Q.** For `COc1cccc(CN(C)CC(=O)NC2(C)CCS(=O)(=O)C2)c1` (configuration not stated), which cytotoxicity at 70.5 h is on record?
**A.** -15.4%

**Q.** For `CCN(CC)CCN1CC[C@H]2OCC[C@@]2(C(=O)N2CCOCC2)C1`, which cytotoxicity at 70.5 h is on record?
**A.** -14.8%

**Q.** Which cytotoxicity at 70.5 h does the source give for `CCOc1ncccc1NC(=O)NCC(O)c1ccc(OC)cc1` (configuration not stated) here?
**A.** 19.2%

**Q.** For `COc1ccc(C2CCCCCN2Cc2nnc(C)o2)cc1` (configuration not stated), which cytotoxicity at 70.5 h is on record?
**A.** -3.01%

**Q.** For `CC(NC(=O)Nc1cccnc1N1CCOCC1)c1ccccn1` (configuration not stated), which cytotoxicity at 70.5 h is on record?
**A.** -8.36%

**Q.** For `O=C(CCCn1ccnc1)N[C@H]1CN(C2CCCC2)C[C@@H]1C1CC1`, which cytotoxicity at 70.5 h is on record?
**A.** -11.7%

**Q.** For `O=C(Nc1ccnc2ccnn12)c1ccc(NC2CC2)nc1`, which cytotoxicity at 70.5 h is on record?
**A.** -1.35%

**Q.** Which cytotoxicity at 70.5 h does the source give for `CCC(O)C1CCN(C(=O)Nc2nc(-c3ccccc3)ns2)CC1` (configuration not stated) here?
**A.** 13.7%

**Q.** For `CN(Cc1ncc[nH]1)CC1CCOc2ccccc2C1` (configuration not stated), which cytotoxicity at 70.5 h is on record?
**A.** 2.48%

**Q.** Which cytotoxicity at 70.5 h does the source give for `CC(=O)N1CCN(c2cc(C3CN(C(C)=O)CCO3)nc(C)n2)CC1` (configuration not stated) here?
**A.** -4.45%

**Q.** For `CCn1c(SC)nnc1C1CCN(C(=O)N2CCCC2)CC1`, which cytotoxicity at 70.5 h is on record?
**A.** -4.95%

**Q.** With `O=S(=O)(NCC1CCN(c2cnccn2)CC1)c1c(F)cccc1F` as the molecule, how does the cytotoxicity at 70.5 h read?
**A.** -9.72%

**Q.** For `Cc1cc(C(=O)N2CCc3[nH]nc(-c4ccc5c(c4)OCO5)c3C2)no1`, which cytotoxicity at 70.5 h is on record?
**A.** 1.25%

**Q.** Which cytotoxicity at 70.5 h does the source give for `O=S(=O)(c1ccc(Cl)s1)N1CCCC(c2ncc[nH]2)C1` (configuration not stated) here?
**A.** -1.59%

**Q.** Which cytotoxicity at 70.5 h does the source give for `Cc1nnc(C[C@@H]2COC[C@H]3CN(C(=O)C4=CCCC4)C[C@@H]23)o1` here?
**A.** -13.7%

**Q.** For `CC(NC(=O)c1cc2n(n1)CCCN(C(C)C)C2)c1cn2ccsc2n1` (configuration not stated), which cytotoxicity at 70.5 h is on record?
**A.** -16.5%

**Q.** With `CCCc1cncnc1N1CCC2(CCC(=O)N(CCCO)C2)CC1` as the molecule, how does the cytotoxicity at 70.5 h read?
**A.** -10.1%

**Q.** Which cytotoxicity at 70.5 h does the source give for `CCC(O)CN1CCN(C(=O)c2sccc2C2CC2)CC1` (configuration not stated) here?
**A.** -2.13%

**Q.** For `Cc1nc(CN2CCC(CNC(=O)C3CCOC3)CC2)oc1C` (configuration not stated), which cytotoxicity at 70.5 h is on record?
**A.** 16.3%

**Q.** For `Cc1cc(C(=O)N2C[C@@H]3[C@@H](CN(C)CCCn4cccn4)[C@@H]3C2)c(C)o1`, which cytotoxicity at 70.5 h is on record?
**A.** -0.851%

**Q.** For `CN(c1ncccc1CNC(=O)c1cscn1)C1CCCCC1`, which cytotoxicity at 70.5 h is on record?
**A.** 0.847%

**Q.** With `CCCc1cc(NC2CCc3nc(C(C)C)nn3C2)n2ncnc2n1` (configuration not stated) as the molecule, how does the cytotoxicity at 70.5 h read?
**A.** -104%

**Q.** For `CN1CCCC(CCC(=O)NCCCn2ncc3ccccc32)C1` (configuration not stated), which cytotoxicity at 70.5 h is on record?
**A.** 25.3%

**Q.** With `Nc1cc(O)nc(CCNC(=O)CC[C@@H]2CCCN3CCCC[C@H]23)n1` as the molecule, how does the cytotoxicity at 70.5 h read?
**A.** -4.87%

**Q.** With `Cn1ccc(CN2CCC(CN3CCOCC3)CC2)cc1=O` as the molecule, how does the cytotoxicity at 70.5 h read?
**A.** -7.39%

**Q.** With `CCS(=O)(=O)N1CCN(CCOC)c2ncccc2C1` as the molecule, how does the cytotoxicity at 70.5 h read?
**A.** -4.33%

**Q.** Which cytotoxicity at 70.5 h does the source give for `CCCc1cncnc1N1CCC(NCCc2nc(O)cc(O)n2)CC1` here?
**A.** -7.02%

**Q.** For `CN1CC[C@@H]2OC[C@H](C(=O)N(C)Cc3ccccn3)C[C@@H]2C1`, which cytotoxicity at 70.5 h is on record?
**A.** 2.32%

**Q.** For `CSc1ccc(C(C(=O)O)N2CCCC2)cc1` (configuration not stated), which cytotoxicity at 70.5 h is on record?
**A.** -7.97%
